Reference: ChEMBL document CHEMBL3885861, “Open TG-GATES”

Species on record: Rattus norvegicus
Experiment: Open TG-GATES - Regimen: Daily Repeat
Assay type: toxicity, organism-based, Sprague-Dawley
Set-up: regimen Daily Repeat, gender Male, age 6 weeks
Settings: in vivo, po, 50 mg/kg, route gavage, dose level Low; for APTT / Bas / Eos / Fbg / Hb / Ht / Lym / MCH / MCHC / MCV / Mono / Neu / PT / Plat / RBC / Ret / WBC: tissue Blood
[1] = 72 h, tissue Kidney, time 3 day
[2] = 72 h, tissue Plasma, time 3 day

SMILES: CN1C(=O)OC(C)(C)C1=O [TRIMETHADIONE]
- TERMINAL_BW (72 h, time 3 day): 239.4 g
- APTT (72 h, time 3 day): 17.8 s
- Bas (72 h, time 3 day): 0%
- Eos (72 h, time 3 day): 1%
- Fbg (72 h, time 3 day): 290.4 mg/dL
- Hb (72 h, time 3 day): 13.8 g/dL
- Ht (72 h, time 3 day): 41%
- Lym (72 h, time 3 day): 74.8%
- MCH (72 h, time 3 day): 21.2 pg
- MCHC (72 h, time 3 day): 33.6%
- MCV (72 h, time 3 day): 63.2 fL
- Mono (72 h, time 3 day): 3%
- Neu (72 h, time 3 day): 20.8%
- PT (72 h, time 3 day): 13 s
- Plat (72 h, time 3 day): 127.3 x10_4/uL
- RBC (72 h, time 3 day): 649 x10_4/ul
- Ret (72 h, time 3 day): 6.9%
- WBC (72 h, time 3 day): 101.6 x10_2/uL
- KIDNEY_L [1]: 1 g
- KIDNEY_R [1]: 1 g
- KIDNEY_TOTAL [1]: 2 g
- LIVER (72 h, tissue Liver, time 3 day): 11.2 g
- A/G [2]: 0.9
- ALP [2]: 1701.8 IU/L
- ALT [2]: 40.4 IU/L
- AST [2]: 73.8 IU/L
- BUN [2]: 15.2 mg/dL
- CRE [2]: 0.2 mg/dL
- Ca [2]: 11.1 mg/dL
- Cl [2]: 106.4 meq/L
- DBIL [2]: 0.008 mg/dL
- GLC [2]: 178.4 mg/dL
- IP [2]: 6.8 mg/dL
- K [2]: 4.7 meq/L
- LDH [2]: 87.2 IU/L
- Na [2]: 141.6 meq/L
- PL [2]: 166 mg/dL
- RALB [2]: 2.6 g/dL
- TBIL [2]: 0.05 mg/dL
- TC [2]: 83 mg/dL
- TG [2]: 123.8 mg/dL
- TP [2]: 5.7 g/dL
- gamma-GTP [2]: 1 IU/L
- TERMINAL_BW ([…], time 7 day): 283.2 g
- TERMINAL_BW ([…], time 14 day): 331.1 g
- TERMINAL_BW ([…], time 28 day): 426.4 g
- APTT ([…], time 7 day): 18.9 s
- Bas ([…], time 7 day): 0%
- Eos ([…], time 7 day): 1.2%
- Fbg ([…], time 7 day): 255.8 mg/dL
- Hb ([…], time 7 day): 13.9 g/dL
- Ht ([…], time 7 day): 41.1%
- Lym ([…], time 7 day): 74.6%
- MCH ([…], time 7 day): 21.1 pg
- MCHC ([…], time 7 day): 33.9%
- MCV ([…], time 7 day): 62.2 fL
- Mono ([…], time 7 day): 2.2%
- Neu ([…], time 7 day): 21.8%
- PT ([…], time 7 day): 13.7 s
- Plat ([…], time 7 day): 137 x10_4/uL
- RBC ([…], time 7 day): 660.4 x10_4/ul
- Ret ([…], time 7 day): 5.5%
- WBC ([…], time 7 day): 92.6 x10_2/uL
- APTT ([…], time 14 day): 21.8 s
- Bas ([…], time 14 day): 0.2%
- Eos ([…], time 14 day): 1%
- Fbg ([…], time 14 day): 271.2 mg/dL
- Hb ([…], time 14 day): 14.9 g/dL
- Ht ([…], time 14 day): 43.7%
- Lym ([…], time 14 day): 76%
- MCH ([…], time 14 day): 20.9 pg
- MCHC ([…], time 14 day): 34.2%
- MCV ([…], time 14 day): 61.3 fL
- Mono ([…], time 14 day): 2.2%
- Neu ([…], time 14 day): 20.6%
- PT ([…], time 14 day): 13.4 s
- Plat ([…], time 14 day): 118 x10_4/uL
- RBC ([…], time 14 day): 712.8 x10_4/ul
- Ret ([…], time 14 day): 4.1%
- WBC ([…], time 14 day): 104.6 x10_2/uL
- APTT ([…], time 28 day): 19.5 s
- Bas ([…], time 28 day): 0.4%
- Eos ([…], time 28 day): 1.4%
- Fbg ([…], time 28 day): 257.6 mg/dL
- Hb ([…], time 28 day): 15.7 g/dL
- Ht ([…], time 28 day): 45.3%
